This is an account of results in the NIST ThermoML archive (doi:10.1021/je0500025).

Counter-ions that a name gives are not always drawn. ± gives the expanded uncertainty stated by the source.

For series [1] the following is noted: 101 kPa, Liquid.
A short description of series [2]: xn = mol fraction of the nth substance listed. Particulars: 101 kPa, Liquid.

What is called mass density is the mass of a sample divided by its volume. In general, viscosity refers to the resistance of a fluid to flow. In the case of `CCC/C=C/COC(C)=O` [(E)-2-hexenyl acetate], the mass density in series [1] (293.15 K) came to 897.84 ± 3 kg/m3; in series [1] (303.15 K), 891.78 ± 3.1 kg/m3; in series [1] (313.15 K), 884.35 ± 3.2 kg/m3. Moreover, the viscosity in series [1] (293.15 K) was 0.901 ± 0.029 mPa·s; in series [1] (303.15 K), 0.77 ± 0.025 mPa·s; in series [1] (313.15 K) it was 0.666 ± 0.021 mPa·s.

For the compound `CCC/C=C/COC(C)=O` [(E)-2-hexenyl acetate] + CCO, the mass density in series [2] (293.15 K, x1 = 1) is listed as 897.84 ± 3 kg/m3; in series [2] (303.15 K, x1 = 1) it was 891.78 ± 3.1 kg/m3; in series [2] (313.15 K, x1 = 1), 884.35 ± 3.2 kg/m3. Besides, the viscosity in series [2] (293.15 K, x1 = 1) is 0.901 ± 0.029 mPa·s; in series [2] (303.15 K, x1 = 1) it was 0.77 ± 0.025 mPa·s; in series [2] (313.15 K, x1 = 1), 0.666 ± 0.021 mPa·s.

For the compound `CC/C=C\CCOC(C)=O` [(Z)-3-hexenyl acetate], the mass density came to 900.82 ± 2.9 kg/m3 in series [1] (293.15 K), 893.14 ± 3 kg/m3 in series [1] (303.15 K) and 886.19 ± 3.2 kg/m3 in series [1] (313.15 K). Also, the viscosity in series [1] (293.15 K) was 0.893 ± 0.028 mPa·s; in series [1] (303.15 K), 0.763 ± 0.024 mPa·s; in series [1] (313.15 K), 0.66 ± 0.021 mPa·s.

Regarding `CC/C=C\CCOC(C)=O` [(Z)-3-hexenyl acetate] + CCO, the mass density is recorded as 900.82 ± 2.9 kg/m3 in series [2] (293.15 K, x1 = 1); 893.14 ± 3 kg/m3 in series [2] (303.15 K, x1 = 1); 886.19 ± 3.2 kg/m3 in series [2] (313.15 K, x1 = 1). The viscosity worked out at 0.893 ± 0.028 mPa·s in series [2] (293.15 K, x1 = 1); 0.763 ± 0.024 mPa·s in series [2] (303.15 K, x1 = 1); 0.66 ± 0.021 mPa·s in series [2] (313.15 K, x1 = 1).

Turning to `CC/C=C\CCOC=O` [(Z)-3-hexenyl formate], the mass density in series [1] (293.15 K) stood at 909.15 ± 3 kg/m3; in series [1] (303.15 K) it was 906.6 ± 3 kg/m3; in series [1] (313.15 K) it was 903.17 ± 3.1 kg/m3. The viscosity in series [1] (293.15 K) was 0.599 ± 0.021 mPa·s; in series [1] (303.15 K), 0.527 ± 0.019 mPa·s; in series [1] (313.15 K), 0.469 ± 0.017 mPa·s.

For `CC/C=C\CCOC=O` [(Z)-3-hexenyl formate] + CCO, the mass density in series [2] (293.15 K, x1 = 1) amounted to 909.15 ± 3 kg/m3; in series [2] (303.15 K, x1 = 1), 906.6 ± 3 kg/m3; in series [2] (313.15 K, x1 = 1) it was 903.17 ± 3.1 kg/m3. In addition, the viscosity in series [2] (293.15 K, x1 = 1) worked out at 0.599 ± 0.021 mPa·s; in series [2] (303.15 K, x1 = 1) it was 0.527 ± 0.019 mPa·s; in series [2] (313.15 K, x1 = 1), 0.469 ± 0.017 mPa·s.

As for `CCCCOC(C)=O` [butyl ethanoate], the mass density in series [1] (293.15 K) worked out at 881.04 ± 3.2 kg/m3; in series [1] (303.15 K), 871.3 ± 3.4 kg/m3; in series [1] (313.15 K), 861.84 ± 3.5 kg/m3. Moreover, the figures for the viscosity in series [1] (293.15 K), in series [1] (303.15 K) and in series [1] (313.15 K) were 0.732 ± 0.023 mPa·s, 0.628 ± 0.02 mPa·s and 0.546 ± 0.018 mPa·s, respectively.

Consider `CCCCOC(C)=O` [butyl ethanoate] + CCO, for which the mass density in series [2] (293.15 K, x1 = 1) is recorded as 881.04 ± 3.2 kg/m3; in series [2] (303.15 K, x1 = 1), 871.3 ± 3.4 kg/m3; in series [2] (313.15 K, x1 = 1) it was 861.84 ± 3.5 kg/m3. In addition, the viscosity in series [2] (293.15 K, x1 = 1) amounted to 0.732 ± 0.023 mPa·s; in series [2] (303.15 K, x1 = 1), 0.628 ± 0.02 mPa·s; in series [2] (313.15 K, x1 = 1), 0.546 ± 0.018 mPa·s.

On to `CCO` [ethanol], for which the figures for the mass density in series [1] (293.15 K), in series [1] (303.15 K) and in series [1] (313.15 K) were 788.24 ± 4.7 kg/m3, 780.73 ± 4.8 kg/m3 and 771.98 ± 5 kg/m3, respectively. In addition, the viscosity in series [1] (293.15 K) amounted to 1.16 ± 0.037 mPa·s; in series [1] (303.15 K) it was 0.968 ± 0.031 mPa·s; in series [1] (313.15 K), 0.81 ± 0.026 mPa·s.

As to `CCO` [ethanol] + CC/C=C\CCOC(C)=O, the mass density was 788.24 ± 4.7 kg/m3 in series [2] (293.15 K, x2 = 0); 780.73 ± 4.8 kg/m3 in series [2] (303.15 K, x2 = 0); 771.98 ± 5 kg/m3 in series [2] (313.15 K, x2 = 0). For the same compound, the viscosity in series [2] (293.15 K, x2 = 0) is 1.16 ± 0.037 mPa·s; in series [2] (303.15 K, x2 = 0) it was 0.968 ± 0.031 mPa·s; in series [2] (313.15 K, x2 = 0), 0.81 ± 0.026 mPa·s.

In the case of `CCO` [ethanol] + CC/C=C\CCOC=O, the mass density in series [2] (293.15 K, x2 = 0) was determined as 788.24 ± 4.7 kg/m3; in series [2] (303.15 K, x2 = 0) it was 780.73 ± 4.8 kg/m3; in series [2] (313.15 K, x2 = 0), 771.98 ± 5 kg/m3. Further, the viscosity in series [2] (293.15 K, x2 = 0) is 1.16 ± 0.037 mPa·s; in series [2] (303.15 K, x2 = 0), 0.968 ± 0.031 mPa·s; in series [2] (313.15 K, x2 = 0) it was 0.81 ± 0.026 mPa·s.

For `CCO` [ethanol] + CCC/C=C/COC(C)=O, the mass density in series [2] (293.15 K, x2 = 0) is reported as 788.24 ± 4.7 kg/m3; in series [2] (303.15 K, x2 = 0) it was 780.73 ± 4.8 kg/m3; in series [2] (313.15 K, x2 = 0), 771.98 ± 5 kg/m3. The viscosity in series [2] (293.15 K, x2 = 0) was found to be 1.16 ± 0.037 mPa·s; in series [2] (303.15 K, x2 = 0) it was 0.968 ± 0.031 mPa·s; in series [2] (313.15 K, x2 = 0) it was 0.81 ± 0.026 mPa·s.

Take `CCO` [ethanol] + CCCCOC(C)=O: the mass density in series [2] (293.15 K, x2 = 0) is on record as 788.24 ± 4.7 kg/m3; in series [2] (303.15 K, x2 = 0) it was 780.73 ± 4.8 kg/m3; in series [2] (313.15 K, x2 = 0), 771.98 ± 5 kg/m3. Besides, the viscosity worked out at 1.16 ± 0.037 mPa·s in series [2] (293.15 K, x2 = 0); 0.968 ± 0.031 mPa·s in series [2] (303.15 K, x2 = 0); 0.81 ± 0.026 mPa·s in series [2] (313.15 K, x2 = 0).
